Experimental data as given in patent publication US20240116985A1, “STAPLED PEPTIDES AND METHODS THEREOF” (priority 2020, published 2024).
Read-outs that look alike come from different tables or passages of the source.

Molecular target: T1, full-length beta-Catenin (Uniprot ID P35222) (Homo sapiens, UniProt P35222)
T1 construct: 10 nM full-length beta-Catenin (Uniprot ID P35222)
T1 sequence (P35222 1-781): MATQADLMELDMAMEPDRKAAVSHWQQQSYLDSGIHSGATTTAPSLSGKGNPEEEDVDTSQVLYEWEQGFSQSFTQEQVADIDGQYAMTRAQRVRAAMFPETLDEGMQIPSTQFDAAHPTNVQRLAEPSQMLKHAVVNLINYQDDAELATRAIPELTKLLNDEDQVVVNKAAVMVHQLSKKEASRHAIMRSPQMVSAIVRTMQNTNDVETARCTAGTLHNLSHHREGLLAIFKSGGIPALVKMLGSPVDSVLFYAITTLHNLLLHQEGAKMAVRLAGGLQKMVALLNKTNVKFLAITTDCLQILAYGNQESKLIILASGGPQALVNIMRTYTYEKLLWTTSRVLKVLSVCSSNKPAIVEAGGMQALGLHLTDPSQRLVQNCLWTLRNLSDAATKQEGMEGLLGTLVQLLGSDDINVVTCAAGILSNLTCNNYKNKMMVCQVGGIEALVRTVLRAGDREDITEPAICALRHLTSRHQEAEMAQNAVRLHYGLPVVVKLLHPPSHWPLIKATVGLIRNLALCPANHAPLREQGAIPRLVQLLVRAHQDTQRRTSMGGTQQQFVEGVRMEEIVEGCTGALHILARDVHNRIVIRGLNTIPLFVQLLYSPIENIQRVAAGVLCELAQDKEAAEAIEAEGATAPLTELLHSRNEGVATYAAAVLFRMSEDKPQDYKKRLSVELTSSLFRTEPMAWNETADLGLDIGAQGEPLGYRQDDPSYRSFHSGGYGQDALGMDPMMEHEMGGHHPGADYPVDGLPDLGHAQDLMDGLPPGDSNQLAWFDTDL
Experiment: Fluorescence polarization IC50 (beta-catenin / 5FAM-TCF4 10-53 competition)
Type: binding
Conditions: fluorescence polarization

Row | Structure (SMILES) | IC50 (beta-catenin, read-out: FP EC50) | IC50 (read-out: beta-Catenin FP IC50)
1 | CC(=O)N1CCC[C@]12CC=CCCCC1(CCCC=CCCCOC(=O)N3CC[C@@](C(=O)N[C@@H](Cc4ccccc4Cl)C(=O)N[C@@H](Cc4csc5ccccc45)C(=O)N[C@@H](CCC(N)=O)C(N)=O)(C3)NC(=O)[C@H](CC(N)=O)NC(=O)[C@H](Cc3ccccc3)NC(=O)[C@H](C)NC(=O)[C@H](C)NC(=O)[C@H](CN(CC(=O)O)Cc3c(F)c(F)c(F)c(F)c3F)NC(=O)[C@H](CC(=O)O)NC1=O)NC(=O)[C@H](CC(C)(C)C)NC(=O)[C@H](CC(=O)O)NC2=O (stereo partly drawn) [I-1450, Ac-PL3-Asp-Npg-B5-Asp-[Pfbn]GA-Ala-Ala-Phe-Asn-PyrS2-2C1F-BztA-Gln-NH2] | 0.011 µM | 0.011 µM
2 | CCNC(=O)CC[C@H](NC(=O)[C@H](Cc1csc2ccccc12)NC(=O)[C@H](Cc1ccsc1)NC(=O)[C@]12CCN(C1)C(=O)OCCCC=CCCCC1(CCCC=CC[C@]3(CCCN3C(C)=O)C(=O)N[C@@H](CC(=O)O)C(=O)N[C@@H](CC(C)(C)C)C(=O)N1)C(=O)N[C@@H](CC(=O)O)C(=O)N[C@@H](Cc1cccc(C(=O)O)c1)C(=O)NC(C)(C)C(=O)N[C@@H](C)C(=O)N[C@@H](Cc1ccccc1)C(=O)N[C@@H](CC)C(=O)N2)C(=O)N[C@@H](C)C(N)=O (stereo partly drawn) [I-2473, Ac-PL3-Asp-Npg-B5-Asp-3COOHF-Aib-Ala-Phe-Abu-PyrS2-3Thi-BztA-[NHEt]GlnR-Ala-NH2] | – | 0.007 µM
3 | CC(=O)N1CCC[C@]12CC=CCCCC1(CCCC=CCCCOC(=O)N3CC[C@@](C(=O)N[C@@H](Cc4ccsc4)C(=O)N[C@@H](Cc4csc5ccccc45)C(=O)N[C@@H](CCC(N)=O)C(N)=O)(C3)NC(=O)[C@H](CC(C)C)NC(=O)[C@H](Cc3ccccc3)NC(=O)[C@H](C)NC(=O)[C@H](C)NC(=O)[C@H](CN(CC(=O)O)CC(F)(F)F)NC(=O)[C@H](CC(=O)O)NC1=O)NC(=O)[C@H](CC1CCCCC1)NC(=O)[C@H](CC(=O)O)NC2=O (stereo partly drawn) [I-1775, Ac-PL3-Asp-Cha-B5-Asp-TfeGA-Ala-Ala-Phe-Leu-PyrS2-3Thi-BztA-Gln-NH2] | – | 0.015 µM
4 | CC(=O)N1CCC[C@]12CC=CCCCC1(CCCC=CCCCOC(=O)N3CC[C@@](C(=O)N[C@@H](Cc4ccccc4Cl)C(=O)N[C@@H](Cc4csc5ccccc45)C(=O)N[C@@H](CO)C(=O)N[C@@H](C)CO)(C3)NC(=O)[C@H](CC(C)C)NC(=O)[C@H](Cc3ccccc3)NC(=O)[C@H](C)NC(=O)[C@H](C)NC(=O)[C@H](Cc3cccc(C(=O)O)c3)NC(=O)[C@H](CC(=O)O)NC1=O)NC(=O)[C@H](CC(C)(C)C)NC(=O)[C@H](CC(=O)O)NC2=O (stereo partly drawn) [I-1907, Ac-PL3-Asp-Npg-B5-Asp-3COOHF-Ala-Ala-Phe-Leu-PyrS2-2C1F-BztA-Ser-Alao1] | – | 0.023 µM
5 | CC(=O)N1CCC[C@]12CC=CCCCC1(CCCC=CCCCCOC(=O)N3CC(C(=O)N[C@@H](Cc4ccccc4C(F)(F)F)C(=O)N[C@@H](Cc4csc5ccccc45)C(=O)N[C@@H](CCC(N)=O)C(N)=O)(C3)NC(=O)[C@H](CC(C)C)NC(=O)[C@H](Cc3ccccc3)NC(=O)[C@H](C)NC(=O)[C@H](C)NC(=O)[C@H](Cc3cccc(C(=O)O)c3)NC(=O)[C@H](CC(=O)O)NC1=O)NC(=O)[C@H](CC(C)(C)C)NC(=O)[C@H](CC(=O)O)NC2=O (stereo partly drawn) [I-2611, Ac-PL3-Asp-Npg-B5-Asp-3COOHF-Ala-Ala-Phe-Leu-Az3-2F3MeF-BztA-Gln-NH2] | – | 0.188 µM
6 | CC(=O)N1CCC[C@]12CCCCC[C@@](C)(C(=O)N[C@@H](CC(=O)O)C(=O)N[C@@H](CC(=O)O)C(=O)N[C@@H](C)C(=O)N[C@@H](C)C(=O)N[C@@H](Cc1ccccc1)C(=O)N[C@@H](CC(C)C)C(=O)NC(C)(C)C(=O)N[C@@H](Cc1ccsc1)C(=O)N[C@@H](Cc1csc3ccccc13)C(=O)N[C@@H](CCC(N)=O)C(N)=O)NC(=O)[C@H](CC(C)(C)C)NC(=O)[C@H](CC(=O)O)NC2=O [I-1982, Ac-PL3-Asp-Npg-S4-Asp-Asp-Ala-Ala-Phe-Leu-Aib-3Thi-BztA-Gln-NH2] | – | 9.66 µM
7 | CC(C)C[C@H](NC(=O)[C@]12CCN(C1)C(=O)OCCCC=CCCCC1(CCCC=CCCCC(=O)N3CCC[C@@]3(C)C(=O)N[C@@H](CC(=O)O)C(=O)N1)C(=O)N[C@@H](C)C(=O)N[C@@H](CC(=O)O)C(=O)N[C@@H](CC(=O)O)C(=O)N[C@@H](C)C(=O)N[C@@H](C)C(=O)N[C@@H](Cc1ccccc1)C(=O)N2)C(=O)N[C@@H](Cc1ccsc1)C(=O)N[C@@H](Cc1csc2ccccc12)C(=O)N[C@@H](CCC(N)=O)C(N)=O (stereo partly drawn) [I-2598, 5hexenyl-MePro-Asp-B5-Ala-Asp-Asp-Ala-Ala-Phe-PyrS2-Leu-3Thi-BztA-Gln-NH2] | – | 1.35 µM
8 | CC(=O)N1CCC[C@]12CC=CCCCC1(CCCC=CCCCOC(=O)N3CC[C@@](C(=O)N[C@@H](Cc4ccccc4)C(=O)N[C@@H](Cc4csc5ccccc45)C(=O)N[C@@H](CCC(N)=O)C(N)=O)(C3)NC(=O)[C@H](CC(C)C)NC(=O)[C@H](CC3CCCCC3)NC(=O)[C@H](C)NC(=O)[C@H](CCCCNC(C)C)NC(=O)[C@H](CCC(N)=O)NC(=O)[C@H](CC(=O)O)NC1=O)NC(=O)[C@H](CC(C)(C)C)NC(=O)[C@H](CC(N)=O)NC2=O (stereo partly drawn) [I-1649, Ac-PL3-Asn-Npg-B5-Asp-Gln-iPrLys-Ala-Cha-Leu-PyrS2-Phe-BztA-Gln-NH2] | – | 2.48 µM
9 | CC(=O)N1CCC[C@]12CC=CCCCC1(CCCC=CCCCOC(=O)N3CC[C@@](C(=O)N[C@@H](Cc4ccsc4)C(=O)N[C@@H](Cc4csc5ccccc45)C(=O)N[C@@H](CCC(N)=O)C(N)=O)(C3)NC(=O)[C@H](CC(C)C)NC(=O)[C@H](Cc3ccccc3)NC(=O)[C@H](C)NC(=O)[C@H](C)NC(=O)[C@H](CC(C)C)NC(=O)[C@H](CC(=O)O)NC1=O)NC(=O)[C@H](CC(C)(C)C)NC(=O)[C@H](CC(=O)O)NC2=O (stereo partly drawn) [I-1444, Ac-PL3-Asp-Npg-B5-Asp-Leu-Ala-Ala-Phe-Leu-PyrS2-3Thi-BztA-Gln-NH2] | – | 6.56 µM
10 | CC(=O)N1Cc2cccc(c2)OCC=CCCCC2(CCCC=CCCCOC(=O)N3CC[C@@](C(=O)N[C@@H](Cc4ccsc4)C(=O)N[C@@H](Cc4csc5ccccc45)C(=O)N[C@@H](CCC(N)=O)C(N)=O)(C3)NC(=O)[C@H](CC(C)C)NC(=O)[C@H](Cc3ccccc3)NC(=O)[C@H](C)NC(=O)[C@H](C)NC(=O)[C@H](CN(CC(=O)O)CC(F)(F)F)NC(=O)[C@H](CC(=O)O)NC2=O)NC(=O)[C@H](CC(C)(C)C)NC(=O)[C@@H]1CC(=O)O (stereo partly drawn) [I-2550, Bn3OAllyl-AcAsp-Npg-B5-Asp-TfeGA-Ala-Ala-Phe-Leu-PyrS2-3Thi-BztA-Gln-NH2] | – | 1.72 µM
11 | CC(=O)N1CCC[C@H]1C(=O)N[C@@H](CC(=O)O)C(=O)N[C@@H](CC(C)(C)C)C(=O)N[C@]1(C)CCC=CCCCOC(=O)N2CC[C@@](C(=O)N[C@@H](Cc3ccsc3)C(=O)N[C@@H](Cc3csc4ccccc34)C(=O)N[C@@H](CCC(N)=O)C(N)=O)(C2)NC(=O)[C@H](CC(C)C)NC(=O)[C@H](Cc2ccccc2)NC(=O)[C@H](C)NC(=O)[C@H](C)NC(=O)[C@H](CC(=O)O)NC(=O)[C@H](CC(=O)O)NC1=O [I-1989, Ac-Pro-Asp-Npg-R4-Asp-Asp-Ala-Ala-Phe-Leu-PyrS2-3Thi-BztA-Gln-NH2] | – | 0.186 µM
12 | CC(=O)N1CCC[C@]12CC=CCCCC1(CCCC=CCCCOC(=O)N3CC[C@@](C(=O)N[C@@H](Cc4cccc(Br)c4)C(=O)N[C@@H](CC4CCC4)C(=O)N[C@@H](CCC(N)=O)C(N)=O)(C3)NC(=O)[C@H](CC(C)C)NC(=O)[C@H](Cc3ccccc3)NC(=O)[C@H](C)NC(=O)[C@H](C)NC(=O)[C@H](Cc3cccc(C(=O)O)c3)NC(=O)[C@H](CC(=O)O)NC1=O)NC(=O)[C@H](CC(C)(C)C)NC(=O)[C@H](CC(=O)O)NC2=O (stereo partly drawn) [I-2154, Ac-PL3-Asp-Npg-B5-Asp-3COOHF-Ala-Ala-Phe-Leu-PyrS2-3BrF-Cba-Gln-NH2] | – | 9.55 µM
13 | CC(=O)N1CCC[C@]12CC=CCCCC1(CCCC=CCCCOC(=O)N3CC[C@@](C(=O)N[C@@H](Cc4ccccc4)C(=O)N[C@@H](Cc4csc5ccccc45)C(=O)N[C@@H](CCC(N)=O)C(N)=O)(C3)NC(=O)[C@H](CC(C)C)NC(=O)[C@H](Cc3ccc(-c4cccnc4)cc3)NC(=O)[C@H](C)NC(=O)[C@H](C)NC(=O)[C@H](CC(=O)O)NC(=O)[C@H](CC(=O)O)NC1=O)NC(=O)[C@H](CC(C)(C)C)NC(=O)[C@H](CC(=O)O)NC2=O (stereo partly drawn) [I-1490, Ac-PL3-Asp-Npg-B5-Asp-Asp-Ala-Ala-[3Py]4SF-Leu-PyrS2-Phe-BztA-Gln-NH2] | – | 0.226 µM
14 | CC(=O)N1CCC[C@]12CC=CCCCC1(CCCC=CCCCOC(=O)N3CC[C@@](C(=O)N[C@@H](Cc4ccsc4)C(=O)N[C@@H](Cc4csc5ccccc45)C(=O)N[C@H](C(N)=O)[C@@H](C)O)(C3)NC(=O)[C@H](CC(N)=O)NC(=O)[C@H](Cc3ccccc3)NC(=O)[C@H](C)NC(=O)[C@H](C)NC(=O)[C@H]([C@@H](C)O)NC(=O)[C@H](CC(N)=O)NC1=O)NC(=O)[C@H](CC(C)(C)C)NC(=O)[C@H](CC(=O)O)NC2=O (stereo partly drawn) [I-1745, Ac-PL3-Asp-Npg-B5-Asn-Thr-Ala-Ala-Phe-Asn-PyrS2-3Thi-BztA-Thr-NH2] | – | 0.402 µM
